In patent US20030220312A1, “Epoxy-steroidal aldosterone antagonist and calcium channel blocker combination therapy for treatment of cardiovascular disorders” (G.D. Searle & Co., priority 2000, published 2003):

Legend:
[1] = Thermogravimetry / DSC of eplerenone solvates (desolvation); format: physicochemical; details: eplerenone solvate of the named solvent; extrapolated from final solvent weight loss step, thermogravimetric analysis at 10° C./minute under nitrogen purge
Protocol: Each sample (1-10 mg) was placed in an unsealed aluminum pan and heated at 10° C./minute.
Thermogravimetric analysis of solvates was performed using a TA Instruments TGA 2950 thermogravimetric analyzer. Samples were placed in an unsealed aluminum pan under nitrogen purge. Starting temperature was 25° C. with the temperature increased at a rate of about 10° C./minute.

[2] = tested on: myocardial fibrosis in animal models; details: literature (Klug et al; Brilla et al); cited from earlier work
[3] = tested on: hypertensive rats; test: Assay C: Hypertensive Rat Model (renal artery clip); format: in vivo; details: combination of calcium channel blocker and eplerenone versus either component alone, 12 to 24 weeks, expected
Source text: Assay “C”: Hypertensive Rat Model Male rats are made hypertensive by placing a silver clip with an aperture of 240 microns on the left renal artery, leaving the contralateral kidney untouched. Sham controls undergo the-same procedure but without attachment of the clip. One week prior to the surgery, animals to be made hypertensive are divided into separate groups and drug treatment is begun. […] The hearts are removed, weighed, measured and fixed in formalin. Collagen content of heart sections are evaluated using computerized image analysis of picrosirius stained sections.

[4] = tested on: rats with myocardial infarction; test: Assay D: Myocardial Infarction Rat Model (coronary ligation); format: in vivo; details: combination of calcium channel blocker and eplerenone versus either component alone, six weeks, expected
Protocol: Assay “D”: Myocardial Infarction Rat Model: Male rats are anesthetized and the heart is exteriorized following a left sided thoracotomy. The left anterior descending coronary artery is ligated with a suture. The thorax is closed and the animal recovers. Sham animals have the suture passed through without ligation. One week prior to the surgery, animals to undergo infarction are divided into separate groups and drug treatment is begun. Groups of animals are administered vehicle, calcium channel blocker alone, eplerenone alone, and combinations of calcium channel blocker and eplerenone, at various doses, as follow: After six weeks, systolic and diastolic blood pressure, left ventricular end diastolic pressure, left ventricular dP/dT, and heart rate are evaluated. The hearts are removed, weighed, measured and fixed in formalin. Collagen content of heart sections are evaluated using computerized image analysis of picrosirius stained sections.

[5] = tested on: patients with mild to moderate hypertension; test: Example 19 clinical study: eplerenone versus placebo co-administered with a calcium-channel blocker; format: in vivo, human
Source text: This multicenter, randomized, double-blind, placebo-controlled, placebo run-in, parallel group trial involving a minimum of 120 randomized patients with hypertension (seated diastolic blood pressure [seDBP] ≧95 mmHg and <110 mmHg and seated systolic BP [seSBP] <180 mmHg while taking a CCB) will consist of a one- to two-week pretreatment screening period followed by a two- to four-week single-blind placebo run-in period and an 8-week double-blind treatment period. Eligible patients will be patients currently receiving a CCB as part of their antihypertensive medication. […] The dose will not be changed for patients with adequate BP control. […] If the dose has been increased at Week 2, the patient will be reassessed at Week 6. […] If BP is uncontrolled at Week 6 and the dose has been increased at Week 2 or Week 4, the patient must be withdrawn from the study. If symptomatic hypotension (i.e., lightheadedness, dizziness, or syncope associated with low BP) occurs at any time during the study, or if DBP is ≧110 mmHg or SBP is ≧180 mmHg at any time during the trial, the patient must be withdrawn. Patients will receive study medication for a total of 8 weeks.
Patients will return to the clinic for evaluations at Weeks 0 (baseline), 2, 4, 6, 8, and 9. Heart rate, BP, adverse events and concomitant medication will be assessed at each visit. Hematology and biochemistry evaluations and urinalysis for safety will be at Weeks 0, 8, and 9. Serum potassium levels will be determined at Weeks 0 (baseline), 2, 4, 6, 8, and 9. Plasma renin, serum aldosterone, and plasma cortisol will be determined at Weeks 0 and 8. A 12-lead electrocardiogram and physical examination will be done at screening and at Week 9.
The study will consist of a one- to two-week pretreatment screening period followed by a two- to four-week single-blind placebo run-in treatment period, prior to randomization to an eight-week double-blind treatment period.
Eligible patients will be either currently receiving a CCB alone, or receiving a CCB as part of their antihypertensive medication. […] The dose will not be changed for patients with adequate BP control. […] If the dose has been increased at Week 2, the patient will be reassessed at Week 6. The dose of study medication will not be changed for patients with adequate BP control. […] If BP is uncontrolled at Week 6 and the dose has been increased at Week 2 or Week 4, the patient must be withdrawn from the study. The dose of study medication will not be changed for patients with adequate BP control. If symptomatic hypotension (i.e., lightheadedness, dizziness, or syncope associated with low BP) occurs at any time during the study, or if DBP is ≧110 mmHg or SBP is ≧180 mmHg at any time during the study, the patient must be withdrawn. Patients will receive study medication for a total of eight weeks.
Patients will return to the clinic for evaluations at Weeks 0, 2, 4, 6, 8, and 9. Heart rate, BP, adverse events and concomitant medication will be assessed at each visit. Hematology and biochemistry evaluations and urinalysis for safety will be at Weeks 0, 8, and 9. Serum potassium levels will be determined at Weeks 0, 2, 4, 6, 8, and 9. Plasma renin, serum aldosterone, and plasma cortisol will be determined at Weeks 0 and 8. […]
BP evaluations will be analyzed at each visit using two-way analysis of covariance (ANCOVA) with the baseline measurement as the covariate and treatment and center as factors. […]

[6] = tested on: patients with heart failure after an acute myocardial infarction; test: Example 20 clinical study: eplerenone plus CCB in heart failure following acute myocardial infarction; format: in vivo, human; details: expected
Source text: Secondary endpoints include cardiovascular morbidity and mortality. […] (a) pulmonary edema (bilateral posttussive crackles extending at least 1⁄3 of the way up the lung fields in the absence of significant chronic pulmonary disease); or (b) chest x-ray showing pulmonary venous congestion with interstitial or alveolar edema; or (c) auscultatory evidence of a third heart sound (S3) with persistent tachycardia (>100 beats per minute). Eligible patients may be identified for inclusion at any time following emergency room evaluation and presumptive diagnosis of AMI with HF. […] Patients with implanted cardiac defibrillators are excluded. Patients will receive CCB therapy and may have received anticoagulants and antiplatelet agents, and may have received thrombolytics or emergency angioplasty. […] Serum potassium will be determined at 48 hours after initiation of treatment, at 1 and 5 weeks, at all other scheduled study visits, and within one week following any dose change. […] Vital signs (seated heart rate and BP), New York Heart Association (NYHA) functional class, adverse events, and selected concurrent medications will be recorded at every visit. […]

[7] = X-ray powder diffraction estimate of Form H content of dried solids; format: physicochemical; details: for Estimated Weight Percent of Form H: dried solids from methyl ethyl ketone crystallization
Protocol: The weight percent of the diepoxide or 11,12-epoxide in each sample is given in Tables X-6A and X-6B, respectively. A micro-flea magnetic stirrer was added to each scintillation vial along with 1 mL of methyl ethyl ketone. The vials were loosely capped and the solid dissolved by heating to reflux on a hot plate with magnetic stirring. Once the solids were dissolved, the solutions were allowed to cool to room temperature on the hot plate. Magnetic stirring was maintained during the cooling period. After the solutions reached room temperature, the solids were collected by vacuum filtration and immediately analyzed by X-ray powder diffraction (XPRD). The solids were then placed in a 100° C. oven and dried for one hour at ambient pressure. The dried solids were analyzed by XPRD for Form H content by monitoring the area of the Form H diffraction peak at about 12.1 degrees two theta. All XPRD diffraction patterns were recorded using an Inel Multipurpose Diffractometer.
Variables in the design of the experiments included cooling rate, starting material purity level, and end point temperature of crystallization.
High endpoint was defined as 45° C. and low endpoint was defined as 5° C. High cooling rate was defined as 3° C./minute cooling and low cooling rate was defined as 0.1° C./minute cooling.
After a background reading was taken with the FTIR, 250 mL of methyl ethyl ketone was charged to a 1 L Mettler RC-1, MP10 reactor and stirred at 100 rpm. […] Agitation was increased to 500 rpm to suspend solids and the batch temperature was increased to 80° C. […] Black or white specks generally were visible in the resulting transparent solution. The batch temperature was then ramp cooled at the desired rate to the desired endpoint, where it was maintained for one hour before being pulled into a transfer flask and filtered. […] reactor, transfer flask and cake were then washed with 120 mL methyl ethyl ketone. Once the wash was pulled through the cake, the stopped. About 10 grams of each wet cake were dried in a vacuum oven under nominal conditions of 75° C. with a light nitrogen bleed. […]

[8] = Form H content of the Form H seeding product by DSC; format: physicochemical; details: cooling rate (0) 1.5° C./min, cooling endpoint (0) 25° C., 100.8% eplerenone seeded with Form H
Source text: The X-ray powder diffraction model, however, had not been tested for linearity beyond about 15% Form H. This experiment was the only one of the four experiments of this Example where Form H was created in the absence of the diepoxide.

[9] = CCB and eplerenone compared to CCB and placebo, Week 8
[10] = eplerenone 50-100 mg plus CCB versus CCB and placebo, eight weeks, hypertensive patients

t-Butyl Acetate
Desolvation Temperature [1]: 109 °C

CC(=O)S[C@@H]1CC2=CC(=O)CC[C@]2(C)[C@H]2CC[C@@]3(C)[C@@H](CC[C@@]34CCC(=O)O4)[C@H]12 [spironolactone]
myocardial fibrosis [2]: prevents myocardial fibrosis

Isobutyl Acetate
Desolvation Temperature [1]: 112 °C

Isopropanol
Desolvation Temperature [1]: 121 °C

Chloroform
Desolvation Temperature [1]: 125 °C

CCCCO [n-Butanol]
Desolvation Temperature [1]: 103 °C

Propyl Acetate
Desolvation Temperature [1]: 130 °C

Propylene Glycol
Desolvation Temperature [1]: 188 °C

Butyl Acetate
Desolvation Temperature [1]: 108 °C

Acetone
Desolvation Temperature [1]: 117 °C

Methyl Acetate
Desolvation Temperature [1]: 103 °C

COC(=O)[C@@H]1CC2=CC(=O)CC[C@]2(C)[C@@]23O[C@@H]2C[C@@]2(C)[C@@H](CC[C@@]24CCC(=O)O4)[C@H]13 [eplerenone, pregn-4-ene-7,21-dicarboxylic acid, 9,11-epoxy-17-hydroxy-3-oxo, γ-lactone, methyl ester, (7α,11α,17α)-]
cardiac performance [3]: improvements in cardiac performance | cardiac performance [4]: improvements in cardiac performance | change in active renin levels [5, 9]: greater increase | change in aldosterone levels [5, 9]: greater increase | change in mean diastolic blood pressure [5, 10]: greater for the dual therapy group, compared to monotherapy, but this difference did not reach statistical significance | change in systolic blood pressure [5, 10]: significant reduction | serious adverse events ([5]; eplerenone added to CCB therapy, eight weeks): no serious adverse events | all cause mortality (primary end point) ([6]; eplerenone plus CCB relative to CCB alone): Improvement | secondary end points (cardiovascular mortality, hospitalizations, atrial fibrillation, stroke, quality of life) ([6]; eplerenone plus CCB versus CCB alone): Beneficial effects | Weight Percent Form H (XPRD) ([7]; cooling rate (+) 3° C./min, cooling endpoint (+) 45° C., impurity level (++) 61.1% purity eplerenone starting material, appears to be mixture of Form H and diepoxide): 100^5 Weight Percent | Estimated Weight Percent of Form H ([7]; 0% diepoxide in starting eplerenone mixture): None | Estimated Weight Percent of Form H ([7]; 1% diepoxide in starting eplerenone mixture): None | Weight Percent Form H when analyzed by DSC [8]: 100 Weight Percent

Tetrahydrofuran
Desolvation Temperature [1]: 136 °C

Methyl Ethyl Ketone
Desolvation Temperature [1]: 89 °C

Toluene
Desolvation Temperature [1]: 83 °C

Ethanol
Desolvation Temperature [1]: 166 °C

CCCCCCCCO [n-Octanol]
Desolvation Temperature [1]: 116 °C

Ethyl Propionate
Desolvation Temperature [1]: 122 °C
